The supplement of paper PMC10627819
Values after ≈ are worked out from the molar mass of the structure shown.

Experiments:
S. pneumoniae D39V [1] = experiment: Bliss interaction score (quartile over a dose matrix) (fitness difference); higher = more antagonism (negative = synergy)
Outline: (§1)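 Growth in each well was taken as OD595 at entry into stationary phase. Dividing by the plate's robust no-drug mean and capping at 1 gave fitness, and single-drug fitness was inferred from the combination data. The Bliss score, observed minus product-expected fitness, is summarised by quartiles over technical, biological and donor/recipient replicates.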

S. aureus Newman [2] = experiment: as above
Outline: as §1

B. subtilis 168 [3] = experiment: as above
Outline: as §1

S. aureus DSM 20231 [4] = experiment: as above
Outline: as §1

S. pneumoniae D39V [5] = experiment: fitness (endpoint OD595 vs no drug) (fraction); higher = more growth
Outline: (§2)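 Volumes were 30 µl per well, or 55 µl for S. pneumoniae, in 384-well plates inoculated at OD595 0.01. Media were TSB, LB Lennox or CY at 37 °C, and OD595 was read every 30 min for 14 h with first-reading background subtraction. Fitness is the ratio of optical density at stationary-phase entry to the robust mean of no-drug controls. That ratio is capped at 1.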

S. aureus Newman [6] = experiment: as above
Outline: as §2

B. subtilis 168 [7] = experiment: as above
Outline: as §2

S. aureus DSM 20231 [8] = experiment: as above
Outline: as §2

S. pneumoniae D39V [9] = test system: S. pneumoniae D39V
S. aureus Newman [10] = test system: S. aureus Newman
B. subtilis 168 [11] = test system: B. subtilis 168
S. aureus DSM 20231 [12] = test system: S. aureus DSM 20231
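Throughout, for Bliss interaction score (quartile over a dose matrix): first quartile when negative (synergy) and third quartile when positive (antagonism).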

Cc1onc(-c2ccccc2)c1C(=O)N[C@@H]1C(=O)N2[C@@H]1SC(C)(C)[C@@H]2C(=O)O [Oxacillin] + C[n+]1ccc(-c2cc[n+](C)cc2)cc1 [Paraquat]
Conditions	Bliss interaction score
B. subtilis 168 [3]	-0.0872
S. aureus DSM 20231 [4]	-0.0577
S. aureus Newman [2]	-0.0522
S. pneumoniae D39V [1]	0.0963

Conditions	fitness
B. subtilis 168 [7], first compound 0.002 µg/mL, partner 1.25 µg/mL	0.964
B. subtilis 168 [7], first compound 0.002 µg/mL, partner 2.5 µg/mL	0.922
B. subtilis 168 [7], first compound 0.002 µg/mL, partner 5 µg/mL	0.725
B. subtilis 168 [7], first compound 0.004 µg/mL, partner 1.25 µg/mL	0.917
B. subtilis 168 [7], first compound 0.004 µg/mL, partner 2.5 µg/mL	0.864
B. subtilis 168 [7], first compound 0.004 µg/mL, partner 5 µg/mL	0.747
B. subtilis 168 [7], first compound 0.008 µg/mL, partner 1.25 µg/mL	0.861
B. subtilis 168 [7], first compound 0.008 µg/mL, partner 2.5 µg/mL	0.836
B. subtilis 168 [7], first compound 0.008 µg/mL, partner 5 µg/mL	0.665
S. aureus DSM 20231 [8], first compound 0.0156 µg/mL, partner 1.25 µg/mL	0.909
S. aureus DSM 20231 [8], first compound 0.0156 µg/mL, partner 2.5 µg/mL	0.892
S. aureus DSM 20231 [8], first compound 0.0156 µg/mL, partner 5 µg/mL	0.865
S. aureus DSM 20231 [8], first compound 0.0312 µg/mL, partner 1.25 µg/mL	0.704
S. aureus DSM 20231 [8], first compound 0.0312 µg/mL, partner 2.5 µg/mL	0.688
S. aureus DSM 20231 [8], first compound 0.0312 µg/mL, partner 5 µg/mL	0.63
S. aureus DSM 20231 [8], first compound 0.0625 µg/mL, partner 1.25 µg/mL	0.466
S. aureus DSM 20231 [8], first compound 0.0625 µg/mL, partner 2.5 µg/mL	0.599
S. aureus DSM 20231 [8], first compound 0.0625 µg/mL, partner 5 µg/mL	0.498
S. aureus Newman [6], first compound 0.0156 µg/mL, partner 1.25 µg/mL	0.792
S. aureus Newman [6], first compound 0.0156 µg/mL, partner 2.5 µg/mL	0.779
S. aureus Newman [6], first compound 0.0156 µg/mL, partner 5 µg/mL	0.795
S. aureus Newman [6], first compound 0.0312 µg/mL, partner 2.5 µg/mL	0.688
S. aureus Newman [6], first compound 0.0312 µg/mL, partner 5 µg/mL	0.687
S. aureus Newman [6], first compound 0.0625 µg/mL, partner 2.5 µg/mL	0.604
S. aureus Newman [6], first compound 0.0625 µg/mL, partner 5 µg/mL	0.587
S. pneumoniae D39V [5], first compound 0.01 µg/mL, partner 1.5 µg/mL	0.986
S. pneumoniae D39V [5], first compound 0.01 µg/mL, partner 3 µg/mL	0.986
S. pneumoniae D39V [5], first compound 0.01 µg/mL, partner 6 µg/mL	0.96
S. pneumoniae D39V [5], first compound 0.02 µg/mL, partner 1.5 µg/mL	0.939
S. pneumoniae D39V [5], first compound 0.02 µg/mL, partner 3 µg/mL	0.961
S. pneumoniae D39V [5], first compound 0.02 µg/mL, partner 6 µg/mL	0.928
S. pneumoniae D39V [5], first compound 0.04 µg/mL, partner 3 µg/mL	0.538
S. pneumoniae D39V [5], first compound 0.04 µg/mL, partner 6 µg/mL	0.483

fitness, B. subtilis 168 [7], one replicate
Conditions	first compound 0.075 µg/mL	first compound 0.15 µg/mL	first compound 0.3 µg/mL
partner 1.25 µg/mL	0.512	0.0497	0.0541
partner 2.5 µg/mL	0.326	0.054	0.0573
partner 5 µg/mL	0.0786	0.0366	0.0407

CC1=C\[C@@H](O)CC(=O)Cc2nc(co2)C(=O)N2CCC=C2C(=O)O[C@H](C(C)C)[C@H](C)/C=C/C(=O)NC\C=C\1 [Virginiamycin M1]
Conditions	MIC [µg/mL]
B. subtilis 168 [11]	0.5 (≈ 0.951 µM)
S. aureus Newman [10]	2 (≈ 3.81 µM)
S. pneumoniae D39V [9]	4 (≈ 7.61 µM)

fitness
Conditions	0.0625 µg/mL	0.125 µg/mL	0.25 µg/mL	0.5 µg/mL	1 µg/mL	2 µg/mL
B. subtilis 168 [7]	0.956	0.943	0.959	–	–	–
S. aureus DSM 20231 [8]	0.994	≥ 1	≥ 1	–	–	–
S. aureus Newman [6]	0.989	1	≥ 1	–	–	–
S. pneumoniae D39V [5]	–	–	–	≥ 1	0.997	0.994

CC1=C(C(=O)O)N2C(=O)[C@@H](NC(=O)[C@H](N)c3ccccc3)[C@H]2SC1 [Cephalexin]
Conditions	MIC [µg/mL]
S. aureus DSM 20231 [12]	4 (≈ 11.5 µM)
S. aureus Newman [10]	4 (≈ 11.5 µM)
S. pneumoniae D39V [9]	4 (≈ 11.5 µM)

fitness
Conditions	0.125 µg/mL	0.25 µg/mL	0.5 µg/mL	1 µg/mL	2 µg/mL	4 µg/mL
B. subtilis 168 [7]	0.925	0.917	0.937	0.939	–	–
S. aureus Newman [6]	–	0.987	≥ 1	≥ 1	≥ 1	–
S. pneumoniae D39V [5]	–	–	–	0.649	0.29	0.0479

Cc1onc(-c2ccccc2)c1C(=O)N[C@@H]1C(=O)N2[C@@H]1SC(C)(C)[C@@H]2C(=O)O [Oxacillin]
Conditions	MIC [µg/mL]
S. aureus DSM 20231 [12]	0.069 (≈ 0.172 µM)
S. aureus Newman [10]	0.069 (≈ 0.172 µM)
S. pneumoniae D39V [9]	0.031 (≈ 0.0772 µM)

Conditions	fitness
B. subtilis 168 [7], 0.002 µg/mL	0.925
B. subtilis 168 [7], 0.004 µg/mL	0.936
B. subtilis 168 [7], 0.0078 µg/mL	0.941
B. subtilis 168 [7], 0.008 µg/mL	0.962
B. subtilis 168 [7], 0.0155 µg/mL	0.952
B. subtilis 168 [7], 0.031 µg/mL	0.902
S. aureus DSM 20231 [8], 0.0156 µg/mL	0.972
S. aureus DSM 20231 [8], 0.0312 µg/mL	0.889
S. aureus DSM 20231 [8], 0.0625 µg/mL	0.621
S. aureus Newman [6], 0.0156 µg/mL	0.843
S. aureus Newman [6], 0.0312 µg/mL	0.759
S. aureus Newman [6], 0.0625 µg/mL	0.608
S. pneumoniae D39V [5], 0.005 µg/mL	≥ 1
S. pneumoniae D39V [5], 0.01 µg/mL	0.996
S. pneumoniae D39V [5], 0.02 µg/mL	0.986
S. pneumoniae D39V [5], 0.04 µg/mL	0.515

Cn1c2cccc(=O)c-2nc2ccccc21 [Pyocyanin]
Conditions	MIC [µg/mL]
B. subtilis 168 [11]	5 (≈ 23.8 µM)
S. aureus DSM 20231 [12]	5 (≈ 23.8 µM)
S. aureus Newman [10]	5 (≈ 23.8 µM)
S. pneumoniae D39V [9]	1.44 (≈ 6.85 µM)

fitness
Conditions	0.325 µg/mL	0.65 µg/mL	1.25 µg/mL	1.3 µg/mL	2.5 µg/mL	5 µg/mL
B. subtilis 168 [7]	–	–	0.886	–	0.841	0.708
S. aureus DSM 20231 [8]	–	–	0.997	–	0.892	0.59
S. aureus Newman [6]	–	–	0.896	–	0.843	0.399
S. pneumoniae D39V [5]	≥ 1	0.991	–	0.835	–	–

C[n+]1ccc(-c2cc[n+](C)cc2)cc1 [Paraquat] + CN[C@@H]1[C@H](O)[C@H](NC)[C@H]2O[C@@]3(O)C(=O)C[C@@H](C)O[C@H]3O[C@@H]2[C@H]1O [Spectinomycin]
Conditions	Bliss interaction score
B. subtilis 168 [3]	0.0537
S. aureus DSM 20231 [4]	-0.046
S. aureus Newman [2]	0.0596
S. pneumoniae D39V [1]	0.0349

fitness
Conditions	first compound 1.25 µg/mL	first compound 1.5 µg/mL	first compound 2.5 µg/mL	first compound 3 µg/mL	first compound 5 µg/mL	first compound 6 µg/mL
B. subtilis 168 [7], partner 2 µg/mL	0.97	–	0.989	–	0.902	–
B. subtilis 168 [7], partner 4 µg/mL	0.986	–	0.964	–	0.847	–
B. subtilis 168 [7], partner 8 µg/mL	0.877	–	0.882	–	0.847	–
S. aureus DSM 20231 [8], partner 4 µg/mL	0.946	–	0.909	–	0.844	–
S. aureus DSM 20231 [8], partner 8 µg/mL	0.913	–	0.844	–	0.817	–
S. aureus DSM 20231 [8], partner 16 µg/mL	0.837	–	0.874	–	0.758	–
S. aureus Newman [6], partner 4 µg/mL	0.857	–	0.85	–	0.825	–
S. aureus Newman [6], partner 8 µg/mL	0.872	–	0.825	–	0.906	–
S. aureus Newman [6], partner 16 µg/mL	0.89	–	0.849	–	0.833	–
S. pneumoniae D39V [5], partner 4 µg/mL	–	0.964	–	0.976	–	0.995
S. pneumoniae D39V [5], partner 8 µg/mL	–	0.958	–	0.969	–	0.951

fitness, one replicate
Conditions	first compound 1.25 µg/mL	first compound 1.5 µg/mL	first compound 2.5 µg/mL	first compound 3 µg/mL	first compound 5 µg/mL	first compound 6 µg/mL
S. aureus DSM 20231 [8], partner 32 µg/mL	0.669	–	0.713	–	0.735	–
S. aureus DSM 20231 [8], partner 64 µg/mL	0.0748	–	0.0594	–	0.0636	–
S. aureus Newman [6], partner 32 µg/mL	0.62	–	0.6	–	0.563	–
S. aureus Newman [6], partner 64 µg/mL	0.0529	–	0.0827	–	0.106	–
S. pneumoniae D39V [5], partner 16 µg/mL	–	0.851	–	0.856	–	0.913
